Results reported in patent US20110257208A1, “COMPOUNDS USEFUL AS FAAH MODULATORS AND USES THEREOF” (priority 2008, published 2011).

target: T1, hFAAH (Homo sapiens, UniProt O00519); test: Fluorimetric assay with hFAAH microsomes (enzymatic, fluorescence based); assay type: biochemical; details: compound at 1 uM, AA-AMC substrate
T1 construct: expressed in transfected cells; host or cells: HEK293-TRex (Invitrogen) stably transfected with hFAAH in the pcDNA5-Tet-off vector, or T84 human colon epithelial cells (endogenous hFAAH); used as a microsomal preparation
T1 sequence (O00519 1-579): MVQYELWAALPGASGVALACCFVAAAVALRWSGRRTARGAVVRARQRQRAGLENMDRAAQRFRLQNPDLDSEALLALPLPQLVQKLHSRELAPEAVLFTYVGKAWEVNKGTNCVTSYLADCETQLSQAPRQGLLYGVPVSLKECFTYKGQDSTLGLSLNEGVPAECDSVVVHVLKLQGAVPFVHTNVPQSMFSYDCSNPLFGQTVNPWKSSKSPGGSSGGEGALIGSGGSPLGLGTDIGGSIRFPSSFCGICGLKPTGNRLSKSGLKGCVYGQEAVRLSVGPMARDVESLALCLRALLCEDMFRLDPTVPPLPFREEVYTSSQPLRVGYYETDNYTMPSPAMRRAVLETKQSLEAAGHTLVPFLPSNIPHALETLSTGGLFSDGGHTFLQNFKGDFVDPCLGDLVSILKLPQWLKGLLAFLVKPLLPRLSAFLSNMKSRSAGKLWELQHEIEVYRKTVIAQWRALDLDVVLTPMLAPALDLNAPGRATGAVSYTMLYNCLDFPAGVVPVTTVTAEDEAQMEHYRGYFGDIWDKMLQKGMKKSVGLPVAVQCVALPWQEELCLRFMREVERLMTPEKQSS
How it was run: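 Microsomes from T84 cells (endogenous hFAAH) or doxycycline-induced HEK293-TRex cells stably expressing hFAAH, 10 μg per well, in 50 mM HEPES pH 7.4, 1 mM EDTA, 1.4 mg/mL BSA with 2 μM AA-AMC. Kinetic fluorescence read (ex 355/em 460 nm, 275 cycles); activity as % inhibition, 7 concentrations in duplicate.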

SMILES | inhibition at 1 µM [%]
Clc1ncc(CN2Cc3ncnc(Nc4cnc5ccccc5c4)c3C2)s1 [Compound 91, [6-(2-Chloro-thiazol-5-ylmethyl)-6,7-dihydro-5H-pyrrolo[3,4-d]pyrimidin-4-yl]-quinolin-3-yl-amine] | > 50
c1ccc2ncc(Nc3ncnc4c3CN(Cc3ccncc3)C4)cc2c1 [Compound 94, (6-Pyridin-4-ylmethyl-6,7-dihydro-5H-pyrrolo[3,4-d]pyrimidin-4-yl)-quinolin-3-yl-amine] | > 75
Cc1occc1CN1Cc2ncnc(Nc3cnc4ccccc4c3)c2C1 [Compound 96, [6-(2-Methyl-furan-3-ylmethyl)-6,7-dihydro-5H-pyrrolo[3,4-d]pyrimidin-4-yl]-quinolin-3-yl-amine] | > 50
CCc1nc(C)c(CN2Cc3ncnc(Nc4cnc5ccccc5c4)c3C2)s1 [Compound 97, [6-(2-Ethyl-4-methyl-thiazol-5-ylmethyl)-6,7-dihydro-5H-pyrrolo[3,4-d]pyrimidin-4-yl]-quinolin-3-yl-amine] | > 75
FC(F)(F)Oc1ccccc1CN1Cc2ncnc(Nc3cnc4ccccc4c3)c2C1 [Compound 98, Quinolin-3-yl-[6-(2-trifluoromethoxy-benzyl)-6,7-dihydro-5H-pyrrolo[3,4-d]pyrimidin-4-yl]-amine] | > 75
FC(F)(F)c1cccc(CN2Cc3ncnc(Nc4cnc5ccccc5c4)c3C2)c1 [Compound 99, Quinolin-3-yl-[6-(3-trifluoromethyl-benzyl)-6,7-dihydro-5H-pyrrolo[3,4-d]pyrimidin-4-yl]-amine] | > 75
FC(F)(F)Oc1cccc(CN2Cc3ncnc(Nc4cnc5ccccc5c4)c3C2)c1 [Compound 104, Quinolin-3-yl-[6-(3-trifluoromethoxy-benzyl)-6,7-dihydro-5H-pyrrolo[3,4-d]pyrimidin-4-yl]-amine] | > 75
FC(F)Oc1ccccc1CN1Cc2ncnc(Nc3cnc4ccccc4c3)c2C1 [Compound 105, [6-(2-Difluoromethoxy-benzyl)-6,7-dihydro-5H-pyrrolo[3,4-d]pyrimidin-4-yl]-quinolin-3-yl-amine] | > 75
CCCOc1ccccc1CN1Cc2ncnc(Nc3cnc4ccccc4c3)c2C1 [Compound 108, [6-(2-Propoxy-benzyl)-6,7-dihydro-5H-pyrrolo[3,4-d]pyrimidin-4-yl]-quinolin-3-yl-amine] | > 50

Now from value to molecule:

inhibition at 1 µM [%] | SMILES
> 75 | Cc1ccc(C)c(CN2Cc3ncnc(Nc4cnc5ccccc5c4)c3C2)c1 [Compound 89, [6-(2,5-Dimethyl-benzyl)-6,7-dihydro-5H-pyrrolo[3,4-d]pyrimidin-4-yl]-quinolin-3-yl-amine]
> 75 | CCc1ccccc1CN1Cc2ncnc(Nc3cnc4ccccc4c3)c2C1 [Compound 90, [6-(2-Ethyl-benzyl)-6,7-dihydro-5H-pyrrolo[3,4-d]pyrimidin-4-yl]-quinolin-3-yl-amine]
> 75 | Cc1ccccc1CN1Cc2ncnc(Nc3cnc4ccccc4c3)c2C1 [Compound 92, [6-(2-Methyl-benzyl)-6,7-dihydro-5H-pyrrolo[3,4-d]pyrimidin-4-yl]-quinolin-3-yl-amine]
> 25 | Cc1ccc(CN2Cc3ncnc(Nc4cnc5ccccc5c4)c3C2)c(C)c1 [Compound 93, [6-(2,4-Dimethyl-benzyl)-6,7-dihydro-5H-pyrrolo[3,4-d]pyrimidin-4-yl]-quinolin-3-yl-amine]
> 75 | FC(F)(F)c1ccccc1CN1Cc2ncnc(Nc3cnc4ccccc4c3)c2C1 [Compound 95, Quinolin-3-yl-[6-(2-trifluoromethyl-benzyl)-6,7-dihydro-5H-pyrrolo[3,4-d]pyrimidin-4-yl]-amine]
> 75 | CCOc1ccccc1CN1Cc2ncnc(Nc3cnc4ccccc4c3)c2C1 [Compound 100, [6-(2-Ethoxy-benzyl)-6,7-dihydro-5H-pyrrolo[3,4-d]pyrimidin-4-yl]-quinolin-3-yl-amine]
> 75 | c1cc2c(c(CN3Cc4ncnc(Nc5cnc6ccccc6c5)c4C3)c1)OCC2 [Compound 101, [6-(2,3-Dihydro-benzofuran-7-ylmethyl)-6,7-dihydro-5H-pyrrolo[3,4-d]pyrimidin-4-yl]-quinolin-3-yl-amine]
> 75 | CSc1ccccc1CN1Cc2ncnc(Nc3cnc4ccccc4c3)c2C1 [Compound 102, [6-(2-Methylsulfanyl-benzyl)-6,7-dihydro-5H-pyrrolo[3,4-d]pyrimidin-4-yl]-quinolin-3-yl-amine]
> 75 | c1cc(CN2Cc3ncnc(Nc4cnc5ccccc5c4)c3C2)c2c(c1)OCO2 [Compound 103, (6-Benzo[1,3]dioxol-4-ylmethyl-6,7-dihydro-5H-pyrrolo[3,4-d]pyrimidin-4-yl)-quinolin-3-yl-amine]
> 75 | COc1cccc(CN2Cc3ncnc(Nc4cnc5ccccc5c4)c3C2)c1 [Compound 106, [6-(3-Methoxy-benzyl)-6,7-dihydro-5H-pyrrolo[3,4-d]pyrimidin-4-yl]-quinolin-3-yl-amine]
> 75 | Fc1cccc(CN2Cc3ncnc(Nc4cnc5ccccc5c4)c3C2)c1F [Compound 107, [6-(2,3-Difluoro-benzyl)-6,7-dihydro-5H-pyrrolo[3,4-d]pyrimidin-4-yl]-quinolin-3-yl-amine]
> 50 | CC(C)Oc1ccccc1CN1Cc2ncnc(Nc3cnc4ccccc4c3)c2C1 [Compound 109, [6-(2-Isopropoxy-benzyl)-6,7-dihydro-5H-pyrrolo[3,4-d]pyrimidin-4-yl]-quinolin-3-yl-amine]
> 75 | c1ccc2ncc(Nc3ncnc4c3CN(Cc3cccc5cc[nH]c35)C4)cc2c1 [Compound 110, [6-(1H-Indol-7-ylmethyl)-6,7-dihydro-5H-pyrrolo[3,4-d]pyrimidin-4-yl]-quinolin-3-yl-amine]
> 75 | c1ccc(C2CC2)c(CN2Cc3ncnc(Nc4cnc5ccccc5c4)c3C2)c1 [Compound 112, [6-(2-Cyclopropyl-benzyl)-6,7-dihydro-5H-pyrrolo[3,4-d]pyrimidin-4-yl]-quinolin-3-yl-amine]
